Laboratory results from patent publication US11976083B2, “Inhibitors of peptidylarginine deiminases” (Gilead Sciences, Inc., priority 2020, dated 2024).

molecular target: T1, human PAD4 (Homo sapiens, UniProt Q9UM07); assay: In vitro PAD4 BAEE biochemical assay; details: BAEE substrate 3 mM, 5 nM PAD4, 2 mM calcium chloride; geometric mean of multiple experiments
T1 construct: human PAD4 (NM_012387), A2-P663, was PCR amplified; His-SUMO (N, cleaved yes); made in house; host or cells: E. coli BL21(DE3)
How it was run: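 PAD4 5 nM, CaCl2 2 mM, BAEE 3 mM final; 50 mM MOPS pH 7.6, 50 mM NaCl, 0.05% Tween-20, 2 mM DTT. Cpd + enzyme 30 min 25 °C; substrate 2 h 25 °C; EDTA stop; OPA detection 1 h. IC50 4-parameter fit.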

T1 sequence (Q9UM07 2-663): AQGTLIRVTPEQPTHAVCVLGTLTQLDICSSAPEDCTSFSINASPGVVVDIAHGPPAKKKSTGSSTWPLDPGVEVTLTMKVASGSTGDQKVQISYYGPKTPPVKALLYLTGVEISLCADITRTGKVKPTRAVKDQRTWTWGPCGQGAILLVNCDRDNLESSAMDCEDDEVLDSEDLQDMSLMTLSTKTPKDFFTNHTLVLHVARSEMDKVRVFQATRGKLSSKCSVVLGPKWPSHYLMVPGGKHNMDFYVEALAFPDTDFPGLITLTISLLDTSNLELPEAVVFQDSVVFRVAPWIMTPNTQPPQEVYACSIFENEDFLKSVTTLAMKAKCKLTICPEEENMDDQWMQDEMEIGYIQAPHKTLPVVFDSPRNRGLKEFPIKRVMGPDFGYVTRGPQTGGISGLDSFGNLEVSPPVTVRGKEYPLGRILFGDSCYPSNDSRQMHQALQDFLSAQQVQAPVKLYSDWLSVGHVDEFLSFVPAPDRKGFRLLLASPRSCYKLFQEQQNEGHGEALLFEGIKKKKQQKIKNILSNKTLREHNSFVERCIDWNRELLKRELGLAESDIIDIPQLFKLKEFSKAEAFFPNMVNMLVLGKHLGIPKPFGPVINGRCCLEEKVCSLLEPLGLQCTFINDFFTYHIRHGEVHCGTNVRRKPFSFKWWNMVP

| Compound | IC50 |
| --- | --- |
| C[C@H]1NC(=O)[C@@H]2C[C@H]2CC(F)(F)CCCn2c(-c3nc4cc(C(=O)N5C[C@H](N)[C@@H]6CC[C@H]5C6)cc(F)c4n3C3CC3)cc3ccc1nc32 [Example 881, (2~{R},5~{R},7~{S})-14-[5-[(1~{S},4~{R},5~{R})-4-amino-2-azabicyclo [3.2.1]octane-2-carbonyl]-1-cyclopropyl-7-fluoro-benzimidazol-2-yl]-9,9-difluoro-2-methyl-3,13,19-triazatetracyclo [11.5.2.0^{5,7}.0^{16,20}] icosa-1(19),14,16(20), 17-tetraen-4-one] | 24 nM |
| COc1cc(C(=O)N2CCC[C@@H](N)C2)cc2nc(-c3cc4ccc5cc4n3CCCCC[C@H]3C[C@@H]3C(=O)N[C@@H]5C)n(C)c12 [Example 164, (2~{R},5~{S},7~{S})-14-[5-[(3~{R})-3-aminopiperidine-1-carbonyl]-7-methoxy-1-methyl-benzimidazol-2-yl]-2-methyl-3,13-diazatetracyclo[11.5.2.0^{5,7}.0^{16,20}] icosa-1(19),14,16(20),17-tetraen-4-one] | 33 nM |
| COc1cc(C(=O)N2[C@H]3CC[C@@H]2[C@H](N)C3)cc2nc(-c3cc4ccc5nc4n3C[C@H]3C[C@H]3CCCCC(=O)N[C@@H]5C)n(C)c12 [Example 144, (3~{S),5~{R},12~{R})-18-[5-[(1~{R},2~{R},4~{S})-2-amino-7-azabicyclo[2.2.1]heptane-7-carbonyl]-7-methoxy-1-methyl-benzimidazol-2-yl]-12-methyl-1,11,20-triazatetracyclo[11.5.2.0^{3,5}.0^{16,19}] icosa-13(20),14,16(19),17-tetraen-10-one] | 31 nM |
| C[C@H]1NC(=O)[C@@H]2C[C@H]2CCCCCn2c(-c3nc4cc(C(=O)N[C@H]5CNCC[C@@H]5F)c(F)cc4n3CCO)cc3ccc1nc32 [Example 601, 6-fluoro-~{N}-[(3~{S},4~ {S})-4-fluoro-3-piperidyl]-1-(2-hydroxyethyl)-2-[(2~{R},5~{R},7~{R})-2-methyl-4-oxo-3,13,19-triazatetracyclo[11.5.2.0^ {5,7}.0^{16,20}]icosa-1(19),14,16(20),17-tetraen-14-yl]benzimidazole-5-carboxamide] | 45 nM |
| COc1cc(C(=O)N2CC[C@@H](OC(F)F)[C@@H](N)C2)cc2nc(-c3cc4ccc5nc4n3CCCCCc3nc4ccccc4nc3C(=O)N[C@@H]5C)n(C)c12 [Example 824, (2~{R})-21-[5-[(3~{S},4~{R})-3-amino-4-(difluoromethoxy)piperidine-1-carbonyl]-7-methoxy-1-methyl-benzimidazol-2-yl]-2-methyl-3,6,13,20,26-pentazapentacyclo [18.5.2.0^{5,14).0^{7, 12}.0^{23,27}]heptacosa-1(26),5,7(12),8,10,13,21, 23(27),24-nonaen-4-one] | 43 nM |
| CO[C@@H]1CCN(C(=O)c2cc3c4c(c2)nc(-c2cc5ccc6nc5n2CCCCC[C@@H]2C[C@H]2C(=O)N[C@@H]6C)n4CCO3)C[C@@H]1N [Example 729, (2~{R},5~{R},7~{R})-14-[6-[(3~{S},4~{R})-3-amino-4-methoxy-piperidine-1-carbonyl]-9-oxa-1,3-diazatricyclo [6.3.1.0^{4,12}]dodeca-2,4,6,8(12)-tetraen-2-yl]-2-methyl-3,13,19-triazatetracyclo[11.5.2.0^ {5,7}.0^{16,20}] icosa-1(19),14,16(20),17-tetraen-4-one] | 307 nM |
| COc1cc(C(=O)N2[C@H]3CC[C@@H]2[C@H](N)C3)cc2nc(-c3cc4ccc5nc4n3C[C@@H]3C[C@@H]3COCCC(=O)N[C@@H]5C)n(C)c12 [Example 337, (3~{R},5~{S},12~{R})-18-[5-[(1~{R},2~{R},4~{S})-2-amino-7-azabicyclo[2.2.1]heptane-7-carbonyl]-7-methoxy-1-methyl-benzimidazol-2-yl]-12-methyl-7-oxa-1,11,20-triazatetracyclo[11.5.2.0^{3,5}.0^{16,19}] icosa-13(20),14,16(19),17-tetraen-10-one] | 32 nM |
| COc1cc(C(=O)N2CC[C@H]3OCCN[C@H]3C2)cc2nc(-c3cc4ccc5nc4n3C[C@H]3C[C@H]3COCCC(=O)N[C@@H]5C)n(C)c12 (single isomer, unassigned) [Example 245, (3˜{S},5˜{R},12˜{R})-18-[5-[(4˜{a}˜{S},8˜{a}˜{R})-2,3,4,4˜{a},5,7,8,8˜{a}-octahydropyrido[4,3-b][1,4]oxazine-6-carbonyl]-7-methoxy-1-methyl-benzimidazol-2-yl]-12-methyl-7-oxa-1,11,20-triazatetracyclo[11.5.2.0^{3,5}.0^{16,19}]icosa-13(20),14,16(19),17-tetraen-10-one] | 411 nM |
| COc1cc(C(=O)N2[C@H]3CC[C@@H]2[C@H](N)C3)cc2nc(-c3cc4ccc5nc4n3C/C=C\CCCCS(=O)(=O)N[C@@H]5C)n(C)c12 [Example 23, [(1˜{R},2˜{R},4˜{S})-2-amino-7-azabicyclo[2.2.1]heptan-7-yl]-[7-methoxy-1-methyl-2-[(11˜{R})-11-methyl-9,9-dioxo-9$1^6-thia-1,10,19-triazatricyclo[10.5.2.0^{15,18}]nonadeca-3,12(19),13,15(18),16-pentaen-17-yl]benzimidazol-5-yl]methanone] | 40 nM |
| C[C@H]1NC(=O)[C@@H]2C[C@H]2CCCC(F)(F)Cn2c(-c3nc4cc(C(=O)N5C[C@H](N)[C@@H]6CC[C@H]5C6)cc(F)c4n3[C@@H]3C[C@@H]3F)cc3ccc1nc32 [Example 467, (2~{R},5~{R},7~{R})-14-[(1~{R})-5-[(1~{S},4~{R},5~{R})-4-amino-2-azabicyclo[3.2.1]octane-2-carbonyl]-7-fluoro-1-[(2~{S})-2-fluorocyclopropyl]benzimidazol-2-yl]-11,11-difluoro-2-methyl-3,13,19-triazatetracyclo[11.5.2.0^{5,7}.0^{16,20}] icosa-1(19),14,16(20),17-tetraen-4-one] | 27 nM |

More lines, now with the values ahead:

| IC50 | Compound |
| --- | --- |
| 275 nM | COc1cc(C(=O)N[C@H]2CNCCC2(F)F)cc2nc(-c3cc4ccc5nc4n3CCCCCCC(C)(C)C(=O)N[C@@H]5C)n(C)c12 [Example 294, ~{N}-[(3~{S})-4,4-difluoro-3-piperidyl]-7-methoxy-1-methyl-2-[(11~{R})-8,8,11-trimethyl-9-oxo-1,10,19-triazatricyclo[10.5.2.0^{15,18}]nonadeca-12(19),13,15(18),16-tetraen-17-yl]benzimidazole-5-carboxamide] |
| 80 nM | COCCn1c(-c2cc3ccc4nc3n2CCCCCCC(C)(C)C(=O)N[C@@H]4C)nc2cc(C(=O)N[C@H]3CNCC[C@@H]3F)c(F)c(F)c21 [Example 558, 6,7-difluoro-~{N}-[(3~{S},4~{S})-4-fluoro-3-piperidyl]-1-(2-methoxyethyl)-2-[(11~{R})-8,8,11-trimethyl-9-oxo-1,10,19-triazatricyclo [10.5.2.0^{15,18}]nonadeca-12(19),13,15(18),16-tetraen-17-yl]benzimidazole-5-carboxamide] |
| 74 nM | COc1cc(C(=O)N2CC[C@@H](OC)[C@@H](N)C2)cc2nc(-c3cc4ccc5nc4n3CCCCCc3ccnc(C)c3C(=O)N[C@@H]5C)n(C)c12 [Example 697, (2~{R})-17-[5-[(3~{S}, 4~{R})-3-amino-4-methoxy-piperidine-1-carbonyl]-7-methoxy-1-methyl-benzimidazol-2-yl]-2,6-dimethyl-3,7,16,22-tetrazatetracyclo[14.5.2.0^ {5,10}.0^{19,23}] tricosa-1(22),5(10),6,8,17, 19(23),20-heptaen-4-one] |
| 107 nM | COc1cc(C(=O)N2CCC[C@@H](N)C2)cc2nc(-c3cc4ccc5nc4n3C[C@@H]3C[C@H]3COCCC(=O)N[C@@H]5C)n(C)c12 [Example 150, (3~{R},5~{R},12~{R})-18-[5-[(3~{R})-3-aminopiperidine-1-carbonyl]-7-methoxy-1-methyl-benzimidazol-2-yl]-12-methyl-7-oxa-1,11,20-triazatetracyclo[11.5.2.0^{3,5}.0^{16,19}] icosa-13(20),14,16(19),17-tetraen-10-one] |
| 76 nM | COc1cc(C(=O)N[C@H]2CNCC[C@@H]2F)cc2nc(-c3cc4ccc5nc4n3CCCCCOC(C)(C)C(=O)N[C@@H]5C)n(C)c12 [Example 19, ~{N}-[(3~{S},4~{S})-4-fluoro-3-piperidyl]-7-methoxy-1-methyl-2-[(11~{R})-8,8,11-trimethyl-9-oxo-7-oxa-1,10,19-triazatricyclo[10.5.2.0^{15,18}]nonadeca-12(19),13,15(18),16-tetraen-17-yl]benzimidazole-5-carboxamide] |
| 49 nM | COc1cc(C(=O)N[C@H]2CNCC[C@@H]2F)cc2nc(-c3cc4ccc5nc4n3CCCCC[C@H]3C[C@H]3C(=O)N[C@@H]5C)n(C)c12 [Example 518] |
| 161 nM | COCCn1c(-c2cc3ccc4nc3n2CCCCC[C@@H]2C[C@H]2C(=O)N[C@@H]4C)nc2cc(C(=O)N3CC[C@@H](OC)[C@@H](N)C3)cc(OC)c21 [Example 432, (2~{R},5~{R},7~{R})-14-[5-[(3~{S},4~{R})-3-amino-4-methoxy-piperidine-1-carbonyl]-7-methoxy-1-(2-methoxyethyl)benzimidazol-2-yl]-2-methyl-3,13,19-triazatetracyclo[11.5.2.0^{5,7}.0^{16,20}] icosa-1(19),14,16(20),17-tetraen-4-one] |
| 205 nM | COc1cc(C(=O)N[C@H]2CNCC[C@@H]2F)cc2nc(-c3cc4ccc5nc4n3CCCCC[C@@H]3C[C@@H]3C(=O)N[C@@H]5C)n(C)c12 [Example 523, ~{N}-[(3~{S},4~ {S})-4-fluoro-3-piperidyl]-7-methoxy-1-methyl-2-[(2~{R},5~ {S},7~{R})-2-methyl-4-oxo-3,13,19-triazatetracyclo [11.5.2.0^{5,7}.0^{16,20}]icosa-1(19),14,16(20), 17-tetraen-14-yl] benzimidazole-5-carboxamide] |
